This is an account of results in patent publication US12410152B2, “Oxazole and thioazole-type cullin ring ubiquitin ligase compounds and uses thereof” (Proxygen GmbH, priority 2019, dated 2025).

As a reminder, the CC50 is the concentration at which the toxic effect on the cells reaches its halfway point. A lower CC50 goes with greater toxicity to the cells.

One data set deals with KBM7 CUL4Bmut cells. Nature of the data set: cells. It is filed as cell-based. On the procedure: (§1) KBM7 cells with the specified genetic backgrounds were grown in IMDM supplemented with 10% FBS and 1% penicillin/streptomycin (pen/strep). AsPC1, HCT116, NCI-H446 and 293T cells were grown in DMEM 10% FBS and 1% pen/strep. MV4; 11, Jurkat and Be (2) C cells were grown in RPMI 10% FBS 1% pen/strep. KBM7, AsPC1 and HCT116 cells expressing Cas9 were generated using the plasmid Lenti_Cas9_Blasti (Addgene #52962). The lentiviral plasmid lentiGuide-Puro (Addgene #52963) was used to express sgRNAs against the genes UBE2M (in KBM7-Cas9, AsPC1-Cas9 and HCT116-Cas9 cells), UBE2G1 (in KBM7-Cas9 cells) and […] (in KBM7-Cas9 cells). The lentiviral plasmid lentiGuide-Puro-IRES-mCherry (modified from Addgene #52963) was used to express sgRNAs against CUL4A (in KBM7-Cas9 cells). The lentiviral plasmid pLenti-PGK-Hygro-DEST-UBE2M was generated by Gateway cloning (empty destination vector Addgene #19066), and used to generate UBE2M^resc KBM7 cells. […]
(§2) Finally, a total of structurally similar analogs was tested to unravel structure-activity relationship of the identified molecules. To that end, their anti-cancer activity was assayed in WT cells, as well as KBM7 cells deficient in genes identified in the genome-wide CRISPR screens (UBE2M, CUL4B, UBE2G1). Moreover, the compounds were also tested in AsPC1 pancreatic cancer cells (WT or UBE2Mmut), MV4; 11 and Jurkat leukemia cells, Be (2) C neuroblastoma cells, and NCI-H446 lung cancer cells (Table 3 at the end of this document)
(§3) KBM7^WT, mutant KBM7 clones (UBE2M^mut, UBE2M^resc, UBE2G1^mut CUL4A^mut, CUL4B^mut), and 3-day doxycycline pretreated KBM7^iCas9_sgDDB1 cells were seeded at a cell density of 50,000 cells/mL in 96-well plates with DMSO or drug, in triplicates. Drugs used: IC020772.1/IC020772.1X, IC021313.2/IC021313.2X, T6938051/T6938051X or THZ531. Cells were treated for 3 days, after which cell viability was assessed according to manufacturer's protocol (CellTiter Glo, Promega G7570). Survival curves and EC50 values were calculated by best-fit analysis of the log 10 drug concentration to fold change of drug-treated cells over DMSO-treated cells. All survival assays included technical triplicates per sample, per experiment.

For the next data set, the system named is KBM7 UBE2G1mut cells. Nature of the data set: cells. It is filed as cell-based. On the procedure:
as §1, §2, §3

As for `O=C(CSc1nc2ccccc2[nH]1)Nc1ccc(Cl)cn1` [IC021313.2], the CC50 in the data set on KBM7 CUL4Bmut cells worked out at 15.7 µM; with KBM7 UBE2G1mut cells, 4.34 µM.
For the compound `Cc1ccc(C(=O)N2CSCC2C(=O)N=c2[nH]cc(C)s2)o1` (stereo not drawn) [Compound T6938051], the figures for the CC50 with KBM7 CUL4Bmut cells and with KBM7 UBE2G1mut cells were 110 µM and 3.47 µM, respectively.
Taken in the same sequence, the figures for `O=C(CSc1nnc2c(n1)[nH]c1ccccc12)Nc1ccc(Cl)cn1` [IC020772.1] were 7.53 µM and 2 µM.
